A short description of data set [1]: Synergistic cytotoxicity against human HGF cells assessed as inhibition of cell viability incubated for 24 hrs in presence of DOX by MTS assay. It counts as toxicity, cell-based. In general terms: Tetrazolium assays rely on reduction of a dye to a coloured formazan, in cell work by metabolically active cells.
Data set [2] relates to MeWo. As to the kind of experiment: Cytotoxicity against human MeWo cells at 10 uM incubated for 24 hrs by MTS assay. It counts as functional, cell-based.
Data set [3] deals with MeWo. Nature of the data set: Cytotoxicity against human MeWo cells at 50 uM incubated for 24 hrs by MTS assay. It is filed as functional, cell-based.
Data set [4] is described as follows: Synergistic cytotoxicity against human HGF cells assessed as cell viability at 10 uM incubated for 24 hrs in presence of DOX by MTS assay relative to control. It is filed as toxicity, cell-based. Conditions: read-out: Activity.
Data set [5] has as its system MeWo. Nature of the data set: Synergistic cytotoxicity against human MeWo cells assessed as inhibition of cell viability at 10 uM incubated for 24 hrs in presence of DOX by MTS assay. It counts as functional, cell-based.
In data set [6] the test system is SK-BR-3. Nature of the data set: Cytotoxicity against human SK-BR-3 cells at 10 uM incubated for 24 hrs by MTS assay. It counts as functional, cell-based.
Data set [7] can be described thus: Cytotoxicity against human HGF cells at 50 uM incubated for 24 hrs by MTS assay. It is filed as toxicity, cell-based.
Another data set concerns the target Carbonic anhydrase 9 (Homo sapiens, UniProt Q16790). Nature of the data set: Inhibition of recombinant human CA-IX incubated for 15 mins by phenol red dye based stopped-flow CO2 hydration assay.
Data set [8] deals with MeWo. As to the kind of experiment: Cytotoxicity against human MeWo cells assessed as inhibition of cell viability incubated for 24 hrs by MTS assay. It counts as functional, cell-based.
A short description of data set [9]: Cytotoxicity against human HGF cells at 10 uM incubated for 24 hrs by MTS assay. It counts as toxicity, cell-based.
The nature of data set [10]: Cytotoxicity against human HGF cells assessed as inhibition of cell viability incubated for 24 hrs by MTS assay. It is filed as toxicity, cell-based.
In data set [11] the test system is MeWo. Nature of the data set: Synergistic cytotoxicity against human MeWo cells assessed as inhibition of cell viability incubated for 24 hrs in presence of DOX by MTS assay. It counts as functional, cell-based.
Data set [12] has as its system MG-63. As to the kind of experiment: Cytotoxicity against human MG-63 cells at 10 uM incubated for 24 hrs by MTS assay. It is filed as functional, cell-based.
In data set [13] the test system is MG-63. As to the kind of experiment: Cytotoxicity against human MG-63 cells at 50 uM incubated for 24 hrs by MTS assay. It counts as functional, cell-based.
Data set [14] relates to SK-BR-3. Nature of the data set: Cytotoxicity against human SK-BR-3 cells at 50 uM incubated for 24 hrs by MTS assay. It is filed as functional, cell-based.

Usually IC50 stands for the point on the concentration scale where inhibition reaches its midpoint. As a reminder, the Ki is the equilibrium dissociation constant of an inhibitor or competing ligand from its target.

The structures appear in SMILES notation. Active and inactive are the calls of the source. The rule behind the calls is not given here.

Consider `NS(=O)(=O)c1cccc(NC2=CC(c3ccccc3O)N(c3cccc(S(N)(=O)=O)c3)C2=O)c1` (stereo unspecified), for which the results for the IC50 at 24 h in [1] and in [10] were 36.4 µM and 117 µM, respectively. Further, the outcome in the data set with MeWo [2], in the data set on SK-BR-3 [6] and with MG-63 [12] was inactive. Moreover, the outcome in the data set with MeWo [3] and in the data set on MeWo [5] was Active. Also, in [4], the viability at 24 h, 10 µM is over 70%. In addition, the Activity result in data set [7] and in data set [9] was “Non-toxic” each time. For the same molecule, on Carbonic anhydrase 9, the Ki was 345 nM. Besides, the figures for the IC50 in the data set on MeWo [8] and in the data set with MeWo [11] were 94.3 µM and 12.3 µM, respectively.
For the molecule `COc1ccc(C2C=C(Nc3cccc(S(N)(=O)=O)c3)C(=O)N2c2cccc(S(N)(=O)=O)c2)cc1O` (stereo unspecified), the outcome in the data set on MeWo [2], with SK-BR-3 [6] and with MG-63 [12] was inactive. The Ki at Carbonic anhydrase 9 worked out at 95.1 nM. For the same molecule, the Activity entry in data set [9] was “Non-toxic”.
Take `COc1cc(C2C=C(Nc3cccc(S(N)(=O)=O)c3)C(=O)N2c2cccc(S(N)(=O)=O)c2)cc(OC)c1O` (stereo unspecified): the outcome in the data set with MeWo [2], with SK-BR-3 [6] and in the data set on MG-63 [12] was inactive. Further, the Ki on Carbonic anhydrase 9 was 30.3 nM. Moreover, in [9], the Activity result is reported as “Non-toxic”.
With `NS(=O)(=O)c1cccc(NC2=CC(c3ccc4c(c3)OCO4)N(c3cccc(S(N)(=O)=O)c3)C2=O)c1` (stereo unspecified), on Carbonic anhydrase 9, the Ki is 443 nM.
With `NS(=O)(=O)c1cccc(NC2=CC(c3ccco3)N(c3cccc(S(N)(=O)=O)c3)C2=O)c1` (stereo unspecified), the Ki at Carbonic anhydrase 9 worked out at 79.9 nM.
Still for that read-out and setting: in the case of `COc1ccc(O)c(C2C=C(Nc3cccc(S(N)(=O)=O)c3)C(=O)N2c2cccc(S(N)(=O)=O)c2)c1` (stereo unspecified) it was 52.4 nM.
`NS(=O)(=O)c1cccc(NC2=CC(c3ccccc3)N(c3cccc(S(N)(=O)=O)c3)C2=O)c1` (stereo unspecified): the Ki on Carbonic anhydrase 9 came out at 58 nM.
With `NS(=O)(=O)c1cccc(NC2=CC(c3cc(C(F)(F)F)cc(C(F)(F)F)c3)N(c3cccc(S(N)(=O)=O)c3)C2=O)c1` (stereo unspecified), the Ki at Carbonic anhydrase 9 was 539 nM.
For the molecule `NS(=O)(=O)c1cccc(NC2=CC(c3ccc(Br)cc3)N(c3cccc(S(N)(=O)=O)c3)C2=O)c1` (stereo unspecified), at Carbonic anhydrase 9, the Ki worked out at 386 nM.
For the molecule `COc1cccc(C2C=C(Nc3cccc(S(N)(=O)=O)c3)C(=O)N2c2cccc(S(N)(=O)=O)c2)c1O` (stereo unspecified), the IC50 at 24 h in data set [1] turned out to be 27.5 µM; in [10], 70.7 µM. Also, the result in the data set on MeWo [2], in the data set with SK-BR-3 [6] and in the data set with MG-63 [12] was inactive. Moreover, the viability at 24 h, 10 µM in data set [4] was over 70%. In addition, the result in the data set on MeWo [5] was Active. At Carbonic anhydrase 9, the Ki was 7 nM. Also, the values for the IC50 with MeWo [8] and in the data set on MeWo [11] were 63.3 µM and 11.3 µM, respectively. Moreover, the Activity result in [9] is listed as “Non-toxic”.
Take `NS(=O)(=O)c1cccc(NC2=CC(c3ccc(C(F)(F)F)cc3)N(c3cccc(S(N)(=O)=O)c3)C2=O)c1` (stereo unspecified): at Carbonic anhydrase 9, the Ki was 831 nM.
As to `COc1cc(C2C=C(Nc3cccc(S(N)(=O)=O)c3)C(=O)N2c2cccc(S(N)(=O)=O)c2)ccc1O` (stereo unspecified), the Ki at Carbonic anhydrase 9 worked out at 369 nM.
For `NS(=O)(=O)c1cccc(NC2=CC(c3ccc(F)cc3)N(c3cccc(S(N)(=O)=O)c3)C2=O)c1` (stereo unspecified), the IC50 at 24 h came out at 19.6 µM in data set [1] and 85.8 µM in [10]. The result with MeWo [2], in the data set with SK-BR-3 [6] and in the data set with MG-63 [12] was inactive. In data set [4], the viability at 24 h, 10 µM was over 70%. In addition, the outcome in the data set with MeWo [5] was Active. The Ki on Carbonic anhydrase 9 was 50.1 nM. Moreover, the IC50 with MeWo [8] came to 68.6 µM; in the data set with MeWo [11], 11.2 µM. Besides, the Activity entry in data set [9] is “Non-toxic”.
Turning to `CCCCc1ccc(C2C=C(Nc3cccc(S(N)(=O)=O)c3)C(=O)N2c2cccc(S(N)(=O)=O)c2)cc1` (stereo unspecified), the result with MG-63 [13], with MeWo [3] and with SK-BR-3 [14] was Active. Also, the result in the data set on MeWo [2], in the data set with SK-BR-3 [6] and in the data set with MG-63 [12] was inactive. The Activity entry is given as “Toxic” in [7] and “Non-toxic” in data set [9]. Besides, on Carbonic anhydrase 9, the Ki worked out at 564 nM.
Regarding `CC(C)c1ccc(C2C=C(Nc3cccc(S(N)(=O)=O)c3)C(=O)N2c2cccc(S(N)(=O)=O)c2)cc1` (stereo unspecified), the Ki on Carbonic anhydrase 9 came out at 615 nM.
On to `COc1ccc(C2C=C(Nc3cccc(S(N)(=O)=O)c3)C(=O)N2c2cccc(S(N)(=O)=O)c2)cc1OC` (stereo unspecified), for which, on Carbonic anhydrase 9, the Ki worked out at 87.2 nM.
Same read-out and setting: in the case of `N#Cc1ccc(C2C=C(Nc3cccc(S(N)(=O)=O)c3)C(=O)N2c2cccc(S(N)(=O)=O)c2)cc1` (stereo unspecified) it was 345 nM.
With `COc1ccccc1C1C=C(Nc2cccc(S(N)(=O)=O)c2)C(=O)N1c1cccc(S(N)(=O)=O)c1` (stereo unspecified), the Ki on Carbonic anhydrase 9 was determined as 93.8 nM.

The values are drawn from ChEMBL document CHEMBL6087485, “Novel 3-Sulfonamide Dual-Tail Pyrrol-2-one Bridged Molecules as Potent Human Carbonic Anhydrase Isoform Inhibitors: Design, Synthesis, Molecular Modeling Investigation, and Anticancer Activity in MeWo, SK-BR-3, and MG-63 Cell Lines” (J Med Chem, 2025).
